Test results from patent US10793568B2, “Hormone receptor modulators for treating metabolic conditions and disorders” (ARDELYX, INC., priority 2016, dated 2020).

What was measured:
[1] = target: ligand binding domain of human FXR (Homo sapiens (Human), UniProt Q96RI1); assay: FXR ligand binding assay (LanthaScreen TR-FRET, SRC2-2 peptide recruitment); settings: for pEC50: -log EC50, concentration required to produce 50% activation; for Emax: extent of activation relative to GW4064, read-out: % Efficacy
ligand binding domain of human FXR, sequence (Q96RI1 262-486): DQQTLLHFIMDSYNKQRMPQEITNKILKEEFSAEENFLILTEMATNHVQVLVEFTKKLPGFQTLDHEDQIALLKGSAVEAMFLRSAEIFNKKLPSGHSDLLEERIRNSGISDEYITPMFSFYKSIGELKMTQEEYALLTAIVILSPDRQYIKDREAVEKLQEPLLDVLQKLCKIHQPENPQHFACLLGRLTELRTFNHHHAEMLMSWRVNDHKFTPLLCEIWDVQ

[2] = target: human Farnesoid X receptor ligand-binding domain/Gal4 DNA binding domain chimera (Homo sapiens (Human), UniProt Q96RI1); assay: Cell-based assay of FXR activation (FXR-UAS-bla HEK 293T beta-lactamase reporter); settings: cellular FXR beta-lactamase reporter assay; for Emax: HEK-293T, extent of activation relative to GW4064, read-out: % Efficacy; for EC50: FXR-UAS-bla HEK 293T cells, 16 h, pEC50 = -log EC50
human Farnesoid X receptor ligand-binding domain/Gal4 DNA binding domain chimera, sequence (Q96RI1 262-486, change not shown): as the sequence (Q96RI1 262-486) above
human Farnesoid X receptor ligand-binding domain/Gal4 DNA binding domain chimera, sequence (P04386 1-147 partner): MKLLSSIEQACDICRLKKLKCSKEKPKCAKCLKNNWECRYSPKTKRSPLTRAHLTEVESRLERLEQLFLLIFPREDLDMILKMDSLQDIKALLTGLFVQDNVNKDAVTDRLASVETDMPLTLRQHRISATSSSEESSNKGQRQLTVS
Method in brief: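 Readout is cleavage of the CCF4 FRET substrate (409 nm excitation, blue 447 nm signal) by beta-lactamase, expressed under UAS control after a Gal4–human FXR LBD chimera is activated in HEK 293T cells. Compounds were added as 3-fold dilutions for 16 h at 37 °C in 2% charcoal-stripped FBS medium. Curves were fit to a 3-parameter logistic equation to give pEC50, with % activation relative to GW4064.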

Row | Compound | pEC50 [1] | Emax [1] [%] | Emax [2] [%] | EC50 [2] [nM]
1 | O=C(NS(=O)(=O)C1CC1)c1ccc(N2C(=O)[C@@H]3C[C@H]2C[C@H]3OCc2c(-c3c(Cl)cccc3Cl)noc2C2CC2)cc1F [Compound I-331, 4-((1S,4R,5R)-5-((5-cyclopropyl-3-(2,6-chlorophenyl)isoxazol-4-yl)methoxy)-3-oxo-2-azabicyclo[2.2.1]heptan-2-yl)-N-(cyclopropylsulfonyl)-2-fluorobenzamiide] | 8.7 | 180 | 107 | 0.316
2 | O=C(NS(=O)(=O)C1CCOCC1)c1ccc(N2C(=O)[C@@H]3C[C@H]2C[C@H]3OCc2c(-c3c(Cl)cccc3Cl)noc2C2CC2)cc1F [Compound I-332, 4-((1S,4R,5R)-5-((5-cyclopropyl-3-(2,6-dichlorophenyl)isoxazol-4-yl)methoxy)-3-oxo-2-azabicyclo[2.2.1]heptan-2-yl)-2-fluoro-N-((tetrahydro-2H-pyran-4-yl)sulfonyl)benzamide] | 8.8 | 150 | 100 | 0.316
3 | O=C(NS(=O)(=O)CC1CCOCC1)c1ccc(N2C(=O)[C@@H]3C[C@H]2C[C@H]3OCc2c(-c3c(Cl)cccc3Cl)noc2C2CC2)cc1F [Compound I-333, 4-((1S,4R,5R)-5-((5-cyclopropyl-3-(2,6-dichlorophenyl)isoxazol-4-yl)methoxy)-3-oxo-2-azabicyclo[2.2.1]heptan-2-yl)-2-fluoro-N-(((tetrahydro-2H-pyran-4-yl)methyl)sulfonyl)benzamide] | 8.8 | 158 | 112 | 0.501
4 | O=C(NS(=O)(=O)C1CCOC1)c1ccc(N2C(=O)[C@@H]3C[C@H]2C[C@H]3OCc2c(-c3c(Cl)cccc3Cl)noc2C2CC2)cc1F (stereo partly drawn) [Compound I-334, 4-((1S,4R,5R)-5-((5-cyclopropyl-3-(2,6-dichlorophenyl)isoxazol-4-yl)methoxy)-3-oxo-2-azabicyclo[2.2.1]heptan-2-yl)-2-fluoro-N-((tetrahydrofuran-3-yl)sulfonyl)benzamide] | 9 | 180 | 104 | 1
5 | O=C(NS(=O)(=O)CC1CCOC1)c1ccc(N2C(=O)[C@@H]3C[C@H]2C[C@H]3OCc2c(-c3c(Cl)cccc3Cl)noc2C2CC2)cc1F (stereo partly drawn) [Compound I-335, 4-((1S,4R,5R)-5-((5-cyclopropyl-3-(2,6-dichlorophenyl)isoxazol-4-yl)methoxy)-3-oxo-2-azabicyclo[2.2.1]heptan-2-yl)-2-fluoro-N-(((tetrahydrofuran-3-yl)methyl)sulfonyl)benzamide] | 8.8 | 172 | 108 | 1
6 | O=C(NS(=O)(=O)CCC1CCOC1)c1ccc(N2C(=O)[C@@H]3C[C@H]2C[C@H]3OCc2c(-c3c(Cl)cccc3Cl)noc2C2CC2)cc1F (stereo partly drawn) [Compound I-336, 4-((1S,4R,5R)-5-((5-cyclopropyl-3-(2,6-dichlorophenyl)isoxazol-4-yl)methoxy)-3-oxo-2-azabicyclo[2.2.1]heptan-2-yl)-2-fluoro-N-((2-(tetrahydrofuran-3-yl)ethyl)sulfonyl)benzamide] | 8.6 | 182 | 125 | 2.51
7 | O=C(NS(=O)(=O)C1CC1)c1ccc(N2C(=O)[C@@H]3C[C@H]2C[C@H]3OCc2c(-c3c(Cl)cccc3Cl)noc2C2CC2)cc1 [Compound I-337, 4-((1S,4R,5R)-5-((5-cyclopropyl-3-(2,6-dichlorophenyl)isoxazol-4-yl)methoxy)-3-oxo-2-azabicyclo[2.2.1]heptan-2-yl)-N-(cyclopropylsulfonyl)benzamide] | 8.6 | 174 | 110 | 2
8 | O=C(NS(=O)(=O)C1CCOCC1)c1ccc(N2C(=O)[C@@H]3C[C@H]2C[C@H]3OCc2c(-c3c(Cl)cccc3Cl)noc2C2CC2)cc1 [Compound I-338] | 8.9 | 158 | 106 | 15.8
